Measured values: US7632972B2, “Compounds and methods for treatment of cancer and modulation of programmed cell death for melanoma and other cancer cells” (The Board of Trustees of the University of Illionis, priority 2003, dated 2009)

Assays:
human tumor cell lines = assay: NCI DTP 60 human tumor cell line screen (whole panel or cell lines not listed singly); format: cell-based; conditions: NCI panel of human cancer cell lines
Excerpt: Selected compounds were identified for additional testing against a panel of human cancer cell lines maintained by the National Cancer Institute.
Potential anti-cancer agents are screened, and in certain instances were screened, using a screening system provided and performed by the National Cancer Institute (NCl). See http://dtp.nci.nih.gov/docs/misc/common_files/submit_compounds.html. The Developmental Therapeutics Program (DTP) of NCl operates an anti-cancer screening program. The program accepts both natural and synthetic compounds. For screening of natural products extracts, the Natural Products Branch can be contacted.
The operation of this screen utilizes 60 different human tumor cell lines, representing leukemia, melanoma and cancers of the lung, colon, brain, ovary, breast, prostate, and kidney. The aim is to prioritize for further evaluation, synthetic compounds or natural product samples showing selective growth inhibition or cell killing of particular tumor cell lines. […]
Following drug addition, the plates are incubated for an additional 48 h at 37° C., 5% CO2, 95% air, and 100% relative humidity. […] Bound stain is subsequently solubilized with 10 mM trizma base, and the absorbance is read on an automated plate reader at a wavelength of 515 nm. […]

SF-268 = assay: NCI 60 cell line screen (SRB), CNS Cancer; format: cell-based, human
Excerpt: (§1) The operation of this screen utilizes 60 different human tumor cell lines, representing leukemia, melanoma and cancers of the lung, colon, brain, ovary, breast, prostate, and kidney. The aim is to prioritize for further evaluation, synthetic compounds or natural product samples showing selective growth inhibition or cell killing of particular tumor cell lines. This screen is unique in that the complexity of a 60 cell line dose response produced by a given compound results in a biological response pattern which can be utilized in pattern recognition algorithms. Using these algorithms, it is possible to assign a putative mechanism of action to a test compound, or to determine that the response pattern is unique and not similar to that of any of the standard prototype compounds included in the NCl database (see DTP Overview tab). In addition, following characterization of various cellular molecular targets in the 60 cell lines, it may be possible to select compounds most likely to interact with a specific molecular target.
(§2) The human tumor cell lines of the cancer screening panel are grown in RPMI 1640 medium containing 5% fetal bovine serum and 2 mM L-glutamine. For a typical screening experiment, cells are inoculated into 96 well microtiter plates in 100 μL at plating densities ranging from 5,000 to 40,000 cells/well depending on the doubling time of individual cell lines. After cell inoculation, the microtiter plates are incubated at 37° C., 5% CO2, 95% air and 100% relative humidity for 24 h prior to addition of experimental drugs.
(§3) After 24 h, two plates of each cell line are fixed in situ with TCA, to represent a measurement of the cell population for each cell line at the time of drug addition (Tz). Experimental drugs are solubilized in dimethyl sulfoxide at 400-fold the desired final maximum test concentration and stored frozen prior to use. At the time of drug addition, an aliquot of frozen concentrate is thawed and diluted to twice the desired final maximum test concentration with complete medium containing 50 μg/ml gentamicin. Additional four, 10-fold or ½ log serial dilutions are made to provide a total of five drug concentrations plus control. Aliquots of 100 μl of these different drug dilutions are added to the appropriate microtiter wells already containing 100 μl of medium, resulting in the required final drug concentrations.
(§4) Following drug addition, the plates are incubated for an additional 48 h at 37° C., 5% CO2, 95% air, and 100% relative humidity. For adherent cells, the assay is terminated by the addition of cold TCA. Cells are fixed in situ by the gentle addition of 50 μl of cold 50% (w/v) TCA (final concentration, 10% TCA) and incubated for 60 minutes at 4° C. The supernatant is discarded, and the plates are washed five times with tap water and air dried. Sulforhodamine B (SRB) solution (100 μl) at 0.4% (w/v) in 1% acetic acid is added to each well, and plates are incubated for 10 minutes at room temperature. After staining, unbound dye is removed by washing five times with 1% acetic acid and the plates are air dried. Bound stain is subsequently solubilized with 10 mM trizma base, and the absorbance is read on an automated plate reader at a wavelength of 515 nm. For suspension cells, the methodology is the same except that the assay is terminated by fixing settled cells at the bottom of the wells by gently adding 50 μl of 80% TCA (final concentration, 16% TCA). Using the seven absorbance measurements [time zero, (Tz), control growth, (C), and test growth in the presence of drug at the five concentration levels (Ti)], the percentage growth is calculated at each of the drug concentrations levels. Percentage growth inhibition is calculated as: [(Ti−Tz)/(C−Tz)]×100 for concentrations for which Ti>/=Tz [(Ti−Tz)/Tz]×100 for concentrations for which Ti<Tz.
(§5) Three dose response parameters are calculated for each experimental agent. […]

U251 = assay: NCI 60 cell line screen (SRB), CNS Cancer; format: cell-based, human
Excerpt: as §1, §2, §3, §4, §5

SK-MEL-2 = assay: NCI 60 cell line screen (SRB), Melanoma; format: cell-based, human
Excerpt: as §1, §2, §3, §4, §5

SK-MEL-5 = assay: NCI 60 cell line screen (SRB), Melanoma; format: cell-based, human
Excerpt: as §1, §2, §3, §4, §5

UACC-62 = assay: NCI 60 cell line screen (SRB), Melanoma; format: cell-based, human
Excerpt: as §1, §2, §3, §4, §5

SMILES: COc1cccc(CCNC(=O)CC(c2ccccc2)(c2ccccc2)c2ccccc2)c1 [Compound Z3]
- activity against colon cancer cells (human tumor cell lines): significant activity
- activity against melanoma cells (human tumor cell lines): significant activity
- GI50 (SF-268; SF-268): 15 µM
- TGI (SF-268; SF-268): >1.00E−04
- Percent Growth (SF-268; SF-268, Log10 Concentration −4.0): 38%
- Percent Growth (SF-268; SF-268, Log10 Concentration −5.0): 53%
- Percent Growth (SF-268; SF-268, Log10 Concentration −6.0): 87%
- Percent Growth (SF-268; SF-268, Log10 Concentration −7.0): 97%
- Percent Growth (SF-268; SF-268, Log10 Concentration −8.0): 90%
- CC50 (SF-268; SF-268, read-out: LC50 (the source's name)): > 100 µM
- GI50 (U251; U251): 4.85 µM
- TGI (U251; U251): 5.56E−05
- Percent Growth (U251; U251, Log10 Concentration −4.0): −10%
- Percent Growth (U251; U251, Log10 Concentration −5.0): 29%
- Percent Growth (U251; U251, Log10 Concentration −6.0): 96%
- Percent Growth (U251; U251, Log10 Concentration −7.0): 107%
- Percent Growth (U251; U251, Log10 Concentration −8.0): 99%
- CC50 (U251; U251, read-out: LC50 (the source's name)): > 100 µM
- GI50 (SK-MEL-2; SK-MEL-2): 4.41 µM
- TGI (SK-MEL-2; SK-MEL-2): >1.00E−04
- Percent Growth (SK-MEL-2; SK-MEL-2, Log10 Concentration −4.0): 18%
- Percent Growth (SK-MEL-2; SK-MEL-2, Log10 Concentration −5.0): 24%
- Percent Growth (SK-MEL-2; SK-MEL-2, Log10 Concentration −6.0): 97%
- Percent Growth (SK-MEL-2; SK-MEL-2, Log10 Concentration −7.0): 85%
- Percent Growth (SK-MEL-2; SK-MEL-2, Log10 Concentration −8.0): 80%
- CC50 (SK-MEL-2; SK-MEL-2, read-out: LC50 (the source's name)): > 100 µM
- GI50 (SK-MEL-5; SK-MEL-5): 4.84 µM
- TGI (SK-MEL-5; SK-MEL-5): >1.00E−04
- Percent Growth (SK-MEL-5; SK-MEL-5, Log10 Concentration −4.0): 15%
- Percent Growth (SK-MEL-5; SK-MEL-5, Log10 Concentration −5.0): 21%
- Percent Growth (SK-MEL-5; SK-MEL-5, Log10 Concentration −6.0): 113%
- Percent Growth (SK-MEL-5; SK-MEL-5, Log10 Concentration −7.0): 112%
- Percent Growth (SK-MEL-5; SK-MEL-5, Log10 Concentration −8.0): 80%
- CC50 (SK-MEL-5; SK-MEL-5, read-out: LC50 (the source's name)): > 100 µM
- GI50 (UACC-62; UACC-62): 0.613 µM
- TGI (UACC-62; UACC-62): >1.00E−04
- Percent Growth (UACC-62; UACC-62, Log10 Concentration −4.0): 22%
- Percent Growth (UACC-62; UACC-62, Log10 Concentration −5.0): 14%
- Percent Growth (UACC-62; UACC-62, Log10 Concentration −6.0): 41%
- Percent Growth (UACC-62; UACC-62, Log10 Concentration −7.0): 83%
- Percent Growth (UACC-62; UACC-62, Log10 Concentration −8.0): 94%
- CC50 (UACC-62; UACC-62, read-out: LC50 (the source's name)): > 100 µM
